Test system: SK-ES-1 cells
Assay: Ewing's sarcoma-derived cell line growth assay, combination with rapamycin
Format: cell-based
Conditions: Homo sapiens, SK-ES1, 100 nM (each agent), FIG. 8, read-out: proliferation inhibition
Experimental: The typical concentrations used are 30, 10, 3.3, 1.1, 0.37, and 0.12 μg/ml (or 100, 10, 1, 0.1, 0.01, 0.001 nM rapamycin and test antibody for combination studies) and each dilution is performed in triplicate wells. The cells plus antibody are then incubated for 120 hours after which time the relative cell number in each well is determined using the CellTiter-Glo luminescent cell viability assay (Promega). Luminescence (LU=Luminescence Units) is recorded using a XFluor GENios Pro 4 and for data analysis the mean value from triplicate wells is taken and fitted by iterative calculations using a sigmoidal curve analysis program (Graph Pad Prism) with variable Hill slope.

## CO[C@H]1C[C@@H]2CC[C@@H](C)[C@@](O)(O2)C(=O)C(=O)N2CCCC[C@H]2C(=O)O[C@H]([C@H](C)C[C@@H]2CC[C@@H](O)[C@H](OC)C2)CC(=O)[C@H](C)/C=C(\C)[C@@H](O)[C@@H](OC)C(=O)[C@H](C)C[C@H](C)/C=C/C=C/C=C/1C [rapamycin, reference compound]
  inhibition at 0.1 µM: ~60%

Reference: patent US11299538B2, “Anti-IGF antibodies” (Boehringer Ingelheim International GmbH, priority 2008, dated 2022)
